From US20240000724A1, “Compositions and Methods for Treatment or Prevention of Oral Mucositis” (PATHWAYS BIOSCIENCE, LLC, priority 2015, published 2024)
Entries after “also recorded” stand apart in the source; their conditions may differ.

Assays:
[1] = tested on: Nrf2 (ARE-driven luciferase gene expression); assay: ARE-driven luciferase promoter-reporter assay in stably transfected human cancer cell lines; format: cell-based
Protocol: As an example of the properties of PB201, cell lines were cultured which had been stably transfected with constructs of the luciferase gene. This luciferase gene was driven in its promoter region by copies of the ARE Nrf2-binding sequence, known as promoter-reporter constructs (Simmons, Fan, Yeoman, Wakefield and Ramabhadran, NRF2 Oxidative Stress Induced by Heavy Metals is Cell Type Dependent, Curr Chem Genomics 5, 1-12 (2011); Shukla, Huang, Simmons, Tice, Witt, Vanleer, Ramabhadran, Austin and Xia, Profiling environmental chemicals for activity in the antioxidant response element signaling pathway using a high throughput screening approach, Environ Health Perspect 120, 1150-1156 (2012)).
Briefly, the stably transfected cells of types HepG2 (human liver), AREc32 (human breast), MCF7 (human breast), A549 (human lung), 293T (human kidney), and A172 (human brain) were seeded at low density in 24-well plates and incubated at 37° C. with 10% CO2. After 24 h various concentrations of combinations of agents were added to the cells. After an additional 18 h of incubation, the cells were lysed in their wells with 100 μl of a lysing buffer that contains 3.5 mM sodium pyrophosphate to stabilize light output by luciferase. A 20 μl aliquot of cell lysate was added to a small test tube, placed in a BD Monolight 3010 luminometer for background luminescence, and then 50 μl of 1 mM luciferin was injected into the tube. Relative Light Units integrated for 10 sec were measured for each sample.

[2] = Aqueous solubility / visual dissolution in PBS with and without HPBCD; format: physicochemical; conditions: for Aqueous solubility alone: water or aqueous solutions, no solubility enhancer
Protocol: (§1) In this example, approaches were used to increase the aqueous distribution of the otherwise relatively insoluble 1,3-diphenyl-1,3-propanedione (DBM) by adding 2-hydroxypropyl beta-cyclodextrin (HPBCD) at a molar ratio (DBM:HPBCD) of 1:3. […] To verify its presence in the aqueous solutions, the samples were tested for activity of PB201 using HepG2-ARE promoter/reporter cells, which are responsive to PB201 and other Nrf2-activators by promoting the expression of luciferase.

[3] = tested on: Nrf2 (HepG2-ARE promoter/reporter cells); assay: HepG2-ARE promoter/reporter cells, Nrf2 activation (chemiluminescent signal, RLU); format: cell-based, human; conditions: for Nrf2 activation level: 4.2 ug/mL, unstimulated baseline 7182 RLU; for Nrf2 activation (chemiluminescent signal, RLU): HepG2-ARE cells
Protocol: as §1
Furthermore, the Nrf2 activation by the 1,3-diphenyl-1,3-propanedione, with or without solubility enhancing agents such as HPBCD, is temporary, not permanent, and can be repeated; for example the Nrf2 activation by 4.2 ug/mL 1,3-diphenyl-1,3-propanedione decreases from its level at 17 hours (72,949 RLU) to 24 hours (47,121 RLU) after stimulation, and is nearly back to its baseline, unstimulated levels (7182 RLU) by 48 hours (11,659 RLU). Similarly, other types of agents can be utilized to increase aqueous levels of 1,3-diphenyl-1,3-propanedione including, but not limited to, surfactants, liposomes, amphiphiles, emulsifiers, and complexing agents to make solutions or suspensions.

[4] = tested on: Nrf2 signaling pathway (HepG2 cells); assay: Short exposure time course of Nrf2 activation in HepG2 Nrf2-driven promoter luciferase reporter cells; format: cell-based, human; conditions: 5 minutes exposure, washed off, read 24 hours later; compared with 1 or 2 hours exposure
Protocol: As an example of the short time course of PB201 exposure needed to activate the Nrf2 signaling pathway, HepG2 cells stably transfected with a Nrf2-driven promoter, luciferase reporter construct were treated with PB201 for 5 minutes, 1 hour, or 2 hours, then the PB201 was removed and washed off the cells, then 24 hours later the luciferase levels were measured by chemiluminescence to assay for Nrf2 activation.

oral mucositis = assay: Oral mucositis in a mammal receiving radiation treatment or chemotherapy, topical oral administration; format: in vivo; conditions: topical within oral cavity daily, vs untreated or placebo
Protocol: A formulation of PB201 was administered topically within the oral cavity daily to a mammal receiving radiation treatment or chemotherapy that can cause oral mucositis as a side effect. PB201 administration decreased the frequency and/or severity of the oral mucositis as compared to untreated or placebo treated subjects.

[5] = tested on: radiation-induced oral mucositis (cheek pouch ulceration); assay: Radiation-induced oral mucositis in hamster cheek pouch; format: in vivo, Syrian Golden Hamsters; conditions: 40 Gy day 0; topical cheek pouch 1 to 10 μg PB201 3×/day days 0 to 28; scored days 6 to 28
Protocol: In this example, a single dose of radiation (40 Gy) was given on day 0 to the isolated cheek pouch and PB201 treatment was given by topical cheek pouch administration of 1 to 10 μg PB201 given three times daily from days 0 to 28 as 0.2 mL of 5 μg/mL given 3×/day or 0.2 mL of 50 μg/mL given 3×/day, and oral mucositis was determined as cheek pouch ulceration, scored every 2 days from days 6 to 28. Mucositis was scored visually by comparison to a validated photographic scale, ranging from 0 (normal) to 5 (severe ulceration). In descriptive terms, this scale is defined as follows.
A score of 1-2 is considered to represent a mild stage of the disease, whereas a score of 3-5 is considered to indicate moderate to severe mucositis.

With `O=C(CC(=O)c1ccccc1)c1ccccc1` [PB201, 1,3-diphenyl-1,3-propanedione] the “Induction of Nrf2-dependent luciferase gene expression” value ([1]; A172 human brain cell line, other experiments (FIG. 5)) was “lower, but measurable, induction”, the “Nrf2 gene activation and luciferase expression” value ([1]; brain cells (A172), this experiment (FIGS. 2-4)) was “no activation” and the “Nrf2 gene activation and luciferase expression” value ([1]; breast cells (AREc32, MCF7), 18 h incubation) was “exhibited Nrf2 gene activation and luciferase expression”. The “Nrf2 gene activation and luciferase expression” value ([1]; kidney cells (293T), 18 h incubation) was “exhibited Nrf2 gene activation and luciferase expression”, the “Nrf2 gene activation and luciferase expression” value ([1]; liver cells (HepG2), 18 h incubation) was “exhibited Nrf2 gene activation and luciferase expression” and the “Nrf2 gene activation and luciferase expression” value ([1]; lung cells (A549; constitutive Nrf2 activation due to mutation)) was “lesser activation; also recorded: low or negative response”. For the same molecule, the Visual dissolution ([2]; 5 mg in 1 mL PBS with 93 mg HPBCD (3:1 mole ratio)) was “visually dissolved”, the “Change of solubility in aqueous solution by 2-hydroxypropyl beta-cyclodextrin” value ([2]; HPBCD added, DBM:HPBCD 1:3) was “greatly increased” and the Aqueous solubility alone [2] was “nearly insoluble”. The Aqueous solubility alone ([2]; listed as 1,3-diphenyl-1,3-propanedione) was “low aqueous solubility”, the Nrf2 activation level ([3]; 17 hours after stimulation) was 72,949 RLU and the Nrf2 activation level ([3]; 48 hours after stimulation) was 11,659 RLU. For the same molecule, the “Nrf2 activation (chemiluminescent signal, RLU)” value ([3]; PB201 in HPBCD/PBS) was “activated”, the “Nrf2 activation (chemiluminescent signal, RLU)” value ([3]; PB201 in PBS alone) was “not by PB201 in PBS alone” and the “Nrf2 response (luciferase chemiluminescence)” value [4] was “strong Nrf2 response similar to 1 or 2 hours of exposure”. For the same molecule, the “Frequency and/or severity of oral mucositis” value (oral mucositis) was “decreased” and the “Protection against oral mucositis (cheek pouch ulceration score 0-5)” value [5] was “protected against the oral mucositis”.
